Like-named read-outs stand apart in the source and are kept apart here.

In data set [1] the test system is rat liver. Description: Histopathological analysis of liver slices, H&E staining (Part D). The format is in vivo. Here is the method: Histopathological analyses were performed to quantitatively evaluate the degree of liver inflammation in our experimental model using a morphometric examination of liver sections and Modified Hepatic Activity Index Grading (Modified HAI Grading; Necroinflammatory Score).
(§1) Hepatotoxicity and histopathological experiments were performed on 42 jugular-catheterized rats that were randomly divided into Groups D1–D7 containing six animals, as described above. In the “Part D” study, an aqueous solution of the LDXGT formulation and sorafenib were each administered to rats by oral gavage. Blood samples were collected from the jugular vein at 0, 0.5 and 1 h after dosing for the […] group. […] Serum was obtained by centrifugation. The levels of the AST and ALT enzymes were determined using an automatic biochemical analysis. After blood sampling, the livers were dissected from the rats in each group and prepared using a series of processes.

Data set [2] in a line: Herbal drug pharmacokinetic interaction study of sorafenib in rat plasma (Part A). In kind it is in vivo, Male Sprague-Dawley rats. The note with it: for bioavailability: read-out: F (oral bioavailability). From the text:
The jugular-catheterized rats were randomly divided into four groups, Groups A1–A4, as described above. […] […] […] Data from these samples were used to construct pharmacokinetic profiles by plotting drug concentrations versus times.

Data set [3] in a line: Phase I CYP3A4 metabolism study: sorafenib pharmacokinetics after pretreatment with grapefruit juice or ketoconazole (Part B). The note with it: for F (oral bioavailability) / CL: then single sorafenib 10 mg/kg p.o., mean ± SD, n = 6; for F (oral bioavailability): compared to Group A1 (3 mg/kg, i.v.), rat.
Data set [4] has as its system rat liver. Description: Hepatotoxicity study: serum AST and ALT levels (Part D). The format is in vivo. Here is the method:
as §1

For data set [5] the following is noted: dog plasma, cited from earlier work.
The conditions of data set [6]: rat plasma, cited from earlier work; for share of AUC in plasma: metabolite of sorafenib.
The subject of the next data set is CYP1A2. To be noted: cited from earlier work.
For data set [7] the following is noted: human plasma, cited from earlier work.
For a further data set, the system named is CYP3A4. The note with it: cited from earlier work.
[8] abbreviates: Group A2: sorafenib 10 mg/kg, p.o. alone, rat plasma, mean ± SD, n = 6.
The mark [9] stands for this setting: Group A4: LDXGT formulation 2 g/kg/day p.o. for 5 consecutive days, then single sorafenib 10 mg/kg p.o., rat plasma, mean ± SD, n = 6.
Where [10] appears, read: male, Sprague-Dawley, rat, plasma, iv, 3 mg/kg, Group A1: sorafenib 3 mg/kg, i.v., rat plasma, mean ± SD, n = 6.
[11] abbreviates: male, Sprague-Dawley, rat, plasma, po, 10 mg/kg, Group A2: sorafenib 10 mg/kg, p.o. alone, rat plasma, mean ± SD, n = 6.
[12] abbreviates: male, Sprague-Dawley, rat, plasma, po, 10 mg/kg, Group A3: LDXGT formulation 1 g/kg/day p.o. for 5 consecutive days, then single sorafenib 10 mg/kg p.o., rat plasma, mean ± SD, n = 6.
Setting [13] is: male, Sprague-Dawley, rat, plasma, po, 10 mg/kg, Group A4: LDXGT formulation 2 g/kg/day p.o. for 5 consecutive days, then single sorafenib 10 mg/kg p.o., rat plasma, mean ± SD, n = 6.

Consider `CNC(=O)c1cc(Oc2ccc(NC(=O)Nc3ccc(Cl)c(C(F)(F)F)c3)cc2)ccn1` [sorafenib, Sorafenib], for which the “liver histopathology (H&E staining)” value in the data set on rat liver [1] (repeated administration groups, Groups D5–D7 (sorafenib 10 mg/kg for 2 weeks, alone or with LDXGT)) was “marked focal inflammation, portal inflammation, focal hemorrhage and congestion, focal lytic necrosis and hepatocyte apoptosis, liver cell degeneration and disrupted intercellular cohesion”; in the data set on rat liver [1] (single-dose groups, Groups D1–D4 (sorafenib 3 mg/kg i.v. or 10 mg/kg p.o., alone or after LDXGT)), “focal inflammation, portal inflammation, focal hemorrhage and congestion, focal lytic necrosis and hepatocyte apoptosis”. In addition, in [2] (Group A2: single sorafenib 10 mg/kg, p.o., rat plasma, approximately), the “time after administration at which maximal plasma concentrations (Cmax) were observed” value lay in the range of 3 to 8 h. Besides, the CL was 1.8 ± 0.7 mL/min/kg in data set [2] (setting [8]); 2.1 ± 0.8 mL/min/kg in [2] (Group A3: LDXGT formulation 1 g/kg/day p.o. for 5 consecutive days, then single sorafenib 10 mg/kg p.o., rat plasma, mean ± SD, n = 6); 1.8 ± 0.2 mL/min/kg in [2] (setting [9]); 2.0 ± 0.4 mL/min/kg in data set [3] (Group B1 (GFJ3): grapefruit juice 3 mL/day p.o. for 5 consecutive days, rat plasma); 2.6 ± 1.1 mL/min/kg in data set [3] (Group B2 (GFJ6): grapefruit juice 6 mL/day p.o. for 5 consecutive days, rat plasma); 2.3 ± 0.8 mL/min/kg in data set [3] (Group B4 (KCZ40): ketoconazole 40 mg/kg/day p.o. for 5 consecutive days, rat plasma). The Vss in [2] (setting [8]) was found to be 1.564 ± 0.477 L/kg; in [2] (setting [9]) it was 1.565 ± 0.231 L/kg. In addition, the “F (oral bioavailability)” value in data set [2] (Group A4: LDXGT formulation 2 g/kg/day p.o. for 5 consecutive days, then single sorafenib 10 mg/kg p.o., compared to Group A1 (3 mg/kg, i.v.), rat, mean ± SD, n = 6) is recorded as 49 ± 5.0%; in [3] (Group B1 (GFJ3): grapefruit juice 3 mL/day p.o. for 5 consecutive days), 45 ± 11%; in [3] (Group B2 (GFJ6): grapefruit juice 6 mL/day p.o. for 5 consecutive days), 39 ± 14%; in data set [3] (Group B4 (KCZ40): ketoconazole 40 mg/kg/day p.o. for 5 consecutive days), 42 ± 14%. Further, the “time after administration at which maximal plasma concentrations were reached” value in [2] (each of Groups A2–A4 (sorafenib 10 mg/kg p.o. alone or after LDXGT 1 or 2 g/kg/day), rat plasma, approximately) lay within 3 to 8 h. Also, in data set [2] (male, Sprague-Dawley, rat, plasma, intravenous, 3 mg/kg), the concentration at 8 min came to 2840 ng/mL. The compound also returned a clearance in data set [2] (male, Sprague-Dawley, rat, plasma, iv, 3 mg/kg) of 1.1 ± 0.4 mL/min/kg. Moreover, the AUC in [2] (setting [10]) is 56000 ng·h/mL; in data set [2] (setting [11]), 104000 ng·h/mL; in data set [2] (setting [12]), 94200 ng·h/mL; in data set [2] (setting [13]) it was 91500 ng·h/mL. For the same compound, the Cmax in [2] (setting [10]) amounted to 4600 ± 200 ng/mL; in [2] (setting [11]) it was 5000 ± 1400 ng/mL; in data set [2] (setting [12]) it was 4800 ± 1000 ng/mL; in data set [2] (setting [13]) it was 4800 ± 700 ng/mL. In addition, the half-life stood at 8.32 ± 4.58 h in data set [2] (setting [10]), 10.5 ± 1.97 h in data set [2] (setting [11]), 10.8 ± 3.2 h in data set [2] (setting [12]) and 9.9 ± 2.55 h in data set [2] (setting [13]). Moreover, the Vd in [2] (male, Sprague-Dawley, rat, plasma, iv, 3 mg/kg, read-out: Vss) amounted to 1.19 ± 0.129 L/kg. Besides, the bioavailability was 56 ± 20% in [2] (male, Sprague-Dawley, rat, plasma, po, 10 mg/kg, Group A2: sorafenib 10 mg/kg, p.o. alone, compared to Group A1 (3 mg/kg, i.v.), rat, mean ± SD, n = 6); 50 ± 24% in [2] (male, Sprague-Dawley, rat, plasma, po, 10 mg/kg); 52 ± 4.3% in data set [3] (male, Sprague-Dawley, in vivo, po, 10 mg/kg). For the same compound, the Tmax in data set [2] (setting [11]) is 7 h; in [2] (setting [12]) it was 6.33 h; in data set [2] (setting [13]), 5.17 h. Besides, the “pharmacokinetic properties across doses (concentration versus time profile)” value in data set [2] (pilot study, single dose 10, 20 and 40 mg/kg, p.o., rat plasma) is recorded as “dose-dependent”. Besides, the “time after administration at which maximal plasma concentrations were achieved” value in data set [3] (each of Groups A2, B1–B4 (sorafenib 10 mg/kg p.o. alone or after grapefruit juice or ketoconazole), rat plasma, approximately) is 3 to 8 h. Besides, the “liver function (AST and ALT)” value is recorded as “marked elevation” with rat liver [4] (repeated sorafenib 10 mg/kg for 2 weeks alone or combined with LDXGT, Groups D5–D7); “No significant difference” in the data set with rat liver [4] (single sorafenib dose 10 mg/kg p.o. alone or after LDXGT pretreatment, among Groups D2–D4, 0, 3 and 6 h after dosing).

In the case of `O=C(Nc1ccc(Oc2ccnc(C(=O)NCO)c2)cc1)Nc1ccc(Cl)c(C(F)(F)F)c1` [M-3], the “share of AUC in plasma” value in data set [5] (metabolite of sorafenib) was 15.6 % of AUC; in [6], 12.1 % of AUC.

As for `O=C(O)[C@H]1O[C@@H](Oc2cc3oc(-c4ccccc4)cc(=O)c3c(O)c2O)[C@H](O)[C@@H](O)[C@@H]1O` [baicalin], the “effect on CYP1A2 activity” value in the data set with CYP1A2 (in vitro, baicalin in human liver microsomes) is recorded as “inhibits”.

On to `CNC(=O)c1cc(Oc2ccc(NC(=O)Nc3ccc(Cl)c(C(F)(F)F)c3)cc2)cc[n+]1[O-]` [M-2], for which the “share of AUC in plasma” value in data set [7] (metabolite of sorafenib) is on record as 16.7 % of AUC; in [6], 0.9 % of AUC. The “presence of the metabolite in plasma” value in data set [5] is recorded as “absent”.

With `C=C[C@@H]1C2=CCOC(=O)C2=CO[C@H]1O[C@@H]1O[C@H](CO)[C@@H](O)[C@H](O)[C@H]1O` [gentiopicroside], in the data set with CYP1A2 (microsomes), the “effect on CYP1A2 activity” value is given as “significant increase”. Moreover, the “effect on CYP3A4 enzyme activity” value in the data set with CYP3A4 was “significant increase”.

On to `O=c1cc(-c2ccccc2)oc2cc(O)c(O)c(O)c12` [baicalein], for which the “effect on CYP3A4 enzyme activity” value with CYP3A4 is on record as “inhibited”.

Regarding `NC(=O)c1cc(Oc2ccc(NC(=O)Nc3ccc(Cl)c(C(F)(F)F)c3)cc2)ccn1` [M-4], the “presence of the metabolite in plasma” value in data set [7], in data set [5] and in data set [6] was “detected” throughout.

On to `CC(=O)N1CCN(c2ccc(OCC3COC(Cn4ccnc4)(c4ccc(Cl)cc4Cl)O3)cc2)CC1` (stereo not drawn) [ketoconazole], for which the “effect on the pharmacokinetics of a single oral sorafenib dose” value in data set [3] (ketoconazole 400 mg/kg/day, sorafenib 10 mg/kg p.o., rats) is “did not affect”.

The clearance is a measure of how efficiently the substance is removed, as volume per time. Low values mean inefficient removal, high ones efficient removal. One may read the AUC as the area under the concentration-time curve, a measure of exposure. A higher AUC goes with more exposure. By Cmax is commonly meant the maximum level reached in the sampled fluid or tissue. What is called half-life is how long it takes for the measured level to halve. A high value points to slow decline. By bioavailability is commonly meant the share of a dose that reaches the circulation, judged against a reference dose that is usually intravenous. One may read the Tmax as the time at which the peak concentration occurs.
